# Results reported in patent US7998936B2, “Use of timosaponin Bll in the preparation of a medicament or product for the prevention and treatment of stroke” (Institute of Radiation Medicine, Academy of Military …, priority 2004, dated 2011).
# Columns and labels:
# [1] = tested on: FeCl3-Induced Middle Cerebral Artery Thrombosis (MCAT) Rats; assay: Cerebral infarct size (TTC staining) in FeCl3-induced middle cerebral artery thrombosis rats; type: in vivo, rat; details: for cerebral infarct size percentage to affected side / cerebral infarct size percentage to total brain: x ± s; for effect on cerebral infarct size (in words): 20 mg/kg and 40 mg/kg, 7 days
# Text: (§1) Tamura and Liu's methods were used with modifications to prepare the model. Rats were anesthetized by intraperitoneal injection of 10% chloral hydrate (0.35 g/kg); and fixed with right arm reclining. An arc incision of about 1.5 cm in length was made at the midpoint between the link of paropia and external auditory canal and temporalis was removed to expose the temporal bone. […] The surrounding-tissues were protected with a piece of plastic film. A small piece of quantitative filter paper, which had absorbed 10 μL of a 50% ferric chloride solution, was applied on this segment of middle cerebral artery. The filter paper was removed after 30 min, and local tissues were rinsed with normal saline solution, followed by suture layer by layer. Then the experimental rats were put back to rearing cage. The temperature was controlled at 24° C. For the sham-operation group, the operation procedures were the same as the model group except for the application of the ferric chloride solution.
# After behavior assessment, the animals were decapitated to remove the brains. The olfactory bulb, cerebellum and lower brain stem were removed, and the remaining part was cut into 5 coronal sections below 4° C. The sections were immediately placed into a TTC staining solution (containing 1.5 m 4% TTC, 0.1 ml 1M K2HPO4 and water (balance) per 5 ml staining solution), followed by incubation in dark at 37° C. for 30 min. Then, the sections were transferred into a solution of 10% formaldehyde and incubated in dark for 24 h. After staining, the non-ischemic areas were rose red, and the infracted areas were white. The white tissues were carefully collected and weighed. The extent of cerebral infarction was expressed as a percentage (%) of infracted tissue to the weight of total brain and also to the affected side of brain.
# [2] = tested on: FeCl3-Induced Middle Cerebral Artery Thrombosis (MCAT) Rats; assay: Neurological symptom score in middle cerebral artery thrombosis rats; type: in vivo, rat; details: for effect on neurological symptoms (in words): 20 mg/kg and 40 mg/kg, 7 days; for neurological symptomatic score 6 h: 6 h after operation; for neurological symptomatic score 6 h / neurological symptomatic score 24 h: full score 4; for neurological symptomatic score 24 h: 24 h after operation
# Text: as §1
# The experimental animals were tested for behaviors 6 h and 24 h after operation according to the Sederson's method with modifications. Criteria: (1) The tail of the rat was lifted to observe the flexibility of the forelimb, with both forelimbs symmetrically stretching forward scored as 0, and occurrence of any or all of shoulder inflexion, elbow inflexion, shoulder intorsion in the contralateral fore-limb opposite to the operation side scored as 1. (2) The animal was placed on a plane, and its shoulders were pushed to the opposite direction to check resistance, Equivalency and strong resistance in both sides was scored as 0, and reduction in resistance in the contralateral side was scored as 1. (3) Both forelimbs of the rat were placed on wire gauze to observe the muscular tension. […] According to the criteria above, the full score is 4, and the higher the score is, the more serious the behavior disorder of the animal is.
# [3] = tested on: Middle Cerebral Artery Thrombosis (MCAT) Rats; assay: Water content in brain tissues in middle cerebral artery thrombosis rats; type: in vivo, rat; details: for Water content of affected hemisphere / Water content of unaffected hemisphere: 24 h after operation
# [4] = tested on: acute blood stagnation model rats; assay: Whole blood and plasma viscosities in acute blood stagnation model rats; type: in vivo, rat; details: for effect on whole blood and plasma viscosities (in words): 10 mg/kg, 20 mg/kg and 40 mg/kg, high, middle and low shear rates
# Text: MAO Teng-min's methods were modified to prepare the model.
# [5] = tested on: acute blood stagnation model rats; assay: Erythrocyte aggregation and deformability in acute blood stagnation model rats; type: in vivo, rat; details: for effect on erythrocyte aggregation index (in words) / effect on erythrocyte deformability (in words): vs. model group; for Erythrocyte aggregation SS / Erythrocyte deformability SSS: area under curve; for Erythrocyte aggregation MAXD: maximal erythrocyte aggregation index; for Erythrocyte deformability MAXDI: maximal erythrocyte deformation index
# Protocol: MAO Teng-min's methods were modified to prepare the model. Rats were subcutaneously injected with 0.8 mg/kg adrenaline twice at 1 h and 5 h after administration on the fifth day, and were placed into ice-water at 4° C. for 5 min at 2 h after the first injection of adrenaline.
# To 40 μl of heparinized blood, 1 ml of deforming solution was added and mixed thoroughly. A sample of 0.8 ml was tested in an erythrocyte aggregation/deformability tester, and erythrocyte deformability was expressed as maximal erythrocyte deformation index and area under curve (SSS). Another 0.8 ml of anticoagulated blood was tested in an erythrocyte aggregation/deformability tester, and erythrocyte aggregation was expressed as maximal erythrocyte aggregation index (MAXD) and area under curve ([…]).
# [6] = Fenton reaction system; paramagnetic method; cited from earlier work
# [7] = tested on: streptozocin-induced diabetic mouse; details: cited from earlier work
# platelet aggregation = details: cited from earlier work
# IL-1β = assay: ELISA of IL-1β in brain tissue of cerebral ischemia-reperfusion rats; details: brain homogenate
# TNF-α = assay: ELISA of TNF-α in brain tissue of cerebral ischemia-reperfusion rats; details: brain homogenate
# IL-10 = assay: ELISA of IL-10 in brain tissue of cerebral ischemia-reperfusion rats; details: brain homogenate
# TGF-β = assay: ELISA of TGF-β in brain tissue of cerebral ischemia-reperfusion rats; details: brain homogenate
# [8] = tested on: cerebral ischemia-reperfusion model rats; assay: Inflammatory factors in brain tissues in cerebral ischemia-reperfusion rats (overall statement); details: 40 mg/kg
# [9] = vs. model group P<0.05, P<0.01, listed as timosaponin BIT
# [10] = 40 mg/kg, listed as timosaponin BII, 40 mg/kg
compound,measurement,setting,value
"C[C@@H](CCC1(O)O[C@H]2C[C@H]3[C@@H]4CC[C@@H]5C[C@@H](O[C@@H]6O[C@H](CO)[C@H](O)[C@H](O)[C@H]6O[C@@H]6O[C@H](CO)[C@@H](O)[C@H](O)[C@H]6O)CC[C@]5(C)[C@H]4CC[C@]3(C)[C@H]2[C@@H]1C)CO[C@@H]1O[C@H](CO)[C@@H](O)[C@H](O)[C@H]1O (stereo partly drawn) [Timosaponin BII, (25S)-26-O-β-D-glucopyranosyl-22-hydroxy-5β-furostane-3β,26-diol-3-O-β-D-glucopyranosyl(1→2)-β-D-galactopyranoside]",cerebral infarct size percentage to affected side,[1]; 10 mg/kg by gavage 7 days,6.35 ± 3.39%
same,cerebral infarct size percentage to total brain,[1]; 10 mg/kg by gavage 7 days,3.27 ± 1.74%
same,effect on cerebral infarct size (in words),"[1]; vs. model group P<0.05, P<0.01",significantly reduced the cerebral infarct size
same,effect on cerebral infarct size (in words),[1]; [9],significantly reduce the cerebral infarct size
same,cerebral infarct size percentage to affected side,[1]; 20 mg/kg by gavage 7 days,5.37 ± 2.20 %
same,cerebral infarct size percentage to total brain,[1]; 20 mg/kg by gavage 7 days,2.92 ± 1.20 %
same,cerebral infarct size percentage to affected side,[1]; 40 mg/kg by gavage 7 days,3.88 ± 2.38 %
same,cerebral infarct size percentage to total brain,[1]; 40 mg/kg by gavage 7 days,1.99 ± 1.20 %
same,effect on neurological symptoms (in words),"[2]; vs. model group P<0.05, P<0.01",ameliorate neurological symptoms
same,effect on neurological symptoms (in words),[2]; [9],significantly lower the neurological symptom score
same,neurological symptomatic score 6 h,[2]; 10 mg/kg by gavage 7 days,2.08 ± 0.67
same,neurological symptomatic score 6 h,[2]; 20 mg/kg by gavage 7 days,1.82 ± 0.75
same,neurological symptomatic score 6 h,[2]; 40 mg/kg by gavage 7 days,1.50 ± 0.71
same,neurological symptomatic score 24 h,[2]; 10 mg/kg by gavage 7 days,2.08 ± 0.79
same,neurological symptomatic score 24 h,[2]; 20 mg/kg by gavage 7 days,2.00 ± 0.45
same,neurological symptomatic score 24 h,[2]; 40 mg/kg by gavage 7 days,1.90 ± 0.74
same,effect on water content of brain / cerebral edema (in words),"[3]; 40 mg/kg, vs. model group P<0.05, 40 mg/kg",significantly lowered the water content in the affected hemisphere
same,effect on water content of brain / cerebral edema (in words),"[3]; 40 mg/kg, vs. model group P<0.05, listed as timosaponin BIT, 40 mg/kg",significantly reduce the water content of brain
same,Water content of affected hemisphere,[3]; 10 mg/kg,80.52 ± 0.69%
same,Water content of unaffected hemisphere,[3]; 10 mg/kg,79.51 ± 0.57%
same,Water content of affected hemisphere,[3]; 20 mg/kg,80.46 ± 0.79%
same,Water content of unaffected hemisphere,[3]; 20 mg/kg,79.41 ± 0.38%
same,Water content of affected hemisphere,[3]; 40 mg/kg,80.15 ± 0.99 %
same,Water content of unaffected hemisphere,[3]; 40 mg/kg,79.47 ± 0.44%
same,Plasma viscosity (100 S^−1),[4]; 10 mg/kg by gavage 5 days,1.40 ± 0.10
same,Whole blood viscosity 1 S^−1,[4]; 10 mg/kg by gavage 5 days,27.03 ± 4.64
same,Whole blood viscosity 5 S^−1,[4]; 10 mg/kg by gavage 5 days,11.02 ± 1.38
same,Whole blood viscosity 30 S^−1,[4]; 10 mg/kg by gavage 5 days,6.10 ± 0.85
same,Whole blood viscosity 200 S^−1,[4]; 10 mg/kg by gavage 5 days,4.45 ± 0.71
same,effect on whole blood and plasma viscosities (in words),"[4]; P<0.05, P<0.01",significantly lowered whole blood and plasma viscosities
same,effect on whole blood and plasma viscosities (in words),"[4]; P<0.05, P<0.01, listed as timosaponin BII",significantly reduce the whole blood and plasma viscosities
same,Plasma viscosity (100 S^−1),[4]; 20 mg/kg by gavage 5 days,1.36 ± 0.10
same,Whole blood viscosity 1 S^−1,[4]; 20 mg/kg by gavage 5 days,33.13 ± 5.70
same,Whole blood viscosity 5 S^−1,[4]; 20 mg/kg by gavage 5 days,12.91 ± 1.82
same,Whole blood viscosity 30 S^−1,[4]; 20 mg/kg by gavage 5 days,6.55 ± 0.93
same,Whole blood viscosity 200 S^−1,[4]; 20 mg/kg by gavage 5 days,4.49 ± 0.70
same,Plasma viscosity (100 S^−1),[4]; 40 mg/kg by gavage 5 days,1.38 ± 0.12
same,Whole blood viscosity 1 S^−1,[4]; 40 mg/kg by gavage 5 days,31.21 ± 4.29
same,Whole blood viscosity 5 S^−1,[4]; 40 mg/kg by gavage 5 days,12.46 ± 1.33
same,Whole blood viscosity 30 S^−1,[4]; 40 mg/kg by gavage 5 days,6.45 ± 0.60
same,Whole blood viscosity 200 S^−1,[4]; 40 mg/kg by gavage 5 days,4.42 ± 0.38
same,effect on erythrocyte aggregation index (in words),"[5]; 40 mg/kg, 40 mg/kg",reduce the erythrocyte agglutination index
same,effect on erythrocyte deformability (in words),"[5]; 40 mg/kg, 40 mg/kg",significantly improve the deformation ability of erythrocytes
same,effect on erythrocyte aggregation index (in words),[5]; [10],decrease in erythrocyte aggregation index
same,effect on erythrocyte deformability (in words),[5]; [10],significant increase in erythrocyte deformability index
same,Erythrocyte aggregation SS,[5]; 10 mg/kg,186.67 ± 28.85
same,Erythrocyte deformability SSS,[5]; 10 mg/kg,363.88 ± 19.58
same,Erythrocyte aggregation SS,[5]; 20 mg/kg,163.04 ± 50.23
same,Erythrocyte deformability SSS,[5]; 20 mg/kg,363.97 ± 27.87
same,Erythrocyte aggregation SS,[5]; 40 mg/kg,152.78 ± 28.11
same,Erythrocyte deformability SSS,[5]; 40 mg/kg,374.26 ± 15.82
same,Erythrocyte aggregation MAXD,[5]; 10 mg/kg,0.94 ± 0.14
same,Erythrocyte aggregation MAXD,[5]; 20 mg/kg,0.81 ± 0.26
same,Erythrocyte aggregation MAXD,[5]; 40 mg/kg,0.76 ± 0.14
same,Erythrocyte deformability MAXDI,[5]; 10 mg/kg,0.72 ± 0.05
same,Erythrocyte deformability MAXDI,[5]; 20 mg/kg,0.71 ± 0.05
same,Erythrocyte deformability MAXDI,[5]; 40 mg/kg,0.73 ± 0.03
same,free radicals cleared,[6],57%
same,blood sugar level (in words),[7],can lower blood sugar level
same,clotting time (in words),platelet aggregation,prolonging clotting time
same,platelet aggregation (in words),platelet aggregation,obviously inhibiting platelet aggregation
same,IL-1β,IL-1β; 10 mg/kg by gavage 5 days,9.70 ± 0.30 pg/mL
same,IL-1β,IL-1β; 40 mg/kg by gavage 5 days,7.98 ± 0.80 pg/mL
same,TNFα,TNF-α; 10 mg/kg by gavage 5 days,8.44 ± 0.62 pg/mL
same,TNFα,TNF-α; 40 mg/kg by gavage 5 days,7.65 ± 0.61 pg/mL
same,IL-10,IL-10; 10 mg/kg by gavage 5 days,14.49 ± 11.78 pg/mL
same,IL-10,IL-10; 40 mg/kg by gavage 5 days,11.19 ± 5.16 pg/mL
same,TGF-β,TGF-β; 10 mg/kg by gavage 5 days,12.70 ± 3.57 pg/mL
same,TGF-β,TGF-β; 40 mg/kg by gavage 5 days,10.30 ± 3.79 pg/mL
same,"effect on levels of inflammatory factors IL-1β, TNF-α, IL-10, TGF-β (in words)",[8],significantly reduced the levels of these inflammatory factors
Hydergine [reference compound],cerebral infarct size percentage to affected side,[1]; 0.6 mg/kg by gavage 7 days,3.75 ± 1.38 %
same,cerebral infarct size percentage to total brain,[1]; 0.6 mg/kg by gavage 7 days,1.98 ± 0.72 %
same,neurological symptomatic score 6 h,[2]; 0.6 mg/kg by gavage 7 days,1.91 ± 0.83
same,neurological symptomatic score 24 h,[2]; 0.6 mg/kg by gavage 7 days,1.55 ± 0.69
